This series is described as follows: Measurement of Log P values by HPLC on reversed phase columns (EEC directive 79/831 Annex V.A8), methods [a], [b], [c]. Type of series: physicochemical. As to conditions: for chromatographic logP: reversed-phase HPLC column.
The mark [1] stands for this setting: method [a]: LC-UV, acidic range, 0.1% formic acid in water and acetonitrile as eluent (10% to 95% acetonitrile), Table 3, compounds of formula (1).
The mark [2] stands for this setting: method [a]: LC-UV, acidic range, 0.1% formic acid in water and acetonitrile as eluent, Table 5, compounds of formula (2).
[3] abbreviates: HPLC on reversed phase column, method [a].

This is an account of results in patent US20230165252A1, “ACTIVE COMPOUND COMBINATIONS” (Bayer Aktiengesellschaft, priority 2020, published 2023).

Method: Measurement of Log P values as provided herein was performed according to EEC directive 79/831 Annex V.A8 by HPLC (High Performance Liquid Chromatography) on reversed phase columns with the following methods: • ^[a]

For the molecule `O=C(O)c1cc(-c2ccncc2Cl)nnc1Oc1cccc(F)c1F` [Compound 1-053], the LogP under setting [1] is 1.22^[a].

Turning to `COC(=O)c1c(Oc2cccc(C(F)F)c2F)nnc(Cl)c1Cl` [Compound 1-055], the chromatographic logP (commonly lipophilicity estimated from chromatographic retention) under setting [1] worked out at 3.51.

Under setting [1], `CCOC(=O)c1c(Oc2cccc(C3CC3)c2)nnc(Cl)c1Cl` [Compound 1-056] registered a chromatographic logP of 4.41.

Turning to `O=C(O)c1cc(C(F)(F)F)nnc1Oc1cccc(C(F)(F)F)c1` [Compound 1-057], the LogP under setting [1] was 2.27^[a].

Under setting [1], `CCOC(=O)c1c(Oc2cccc(C(F)(F)F)c2)nnc(Cl)c1OCC` [Compound 1-060] yielded a chromatographic logP of 4.23.

For the molecule `COC(=O)c1c(Oc2cccc(C(F)(F)F)c2F)nnc(Cl)c1Cl` [Compound 1-064], the chromatographic logP under setting [1] is 3.96.

Under setting [1], `C=Cc1c(Cl)nnc(Oc2cccc(C(F)(F)F)c2)c1C(=O)OC` [Compound 1-069, methyl 6-chloro-3-[3-(trifluoromethyl)phenoxy]-5-vinyl-pyridazine-4-carboxylate] gave a chromatographic logP of 3.94.

`COC(=O)c1cc(Cl)nnc1Oc1cccc(C(F)(F)F)n1` [Compound 1-071] yielded a chromatographic logP under setting [1] of 2.69.

`CC(C)OC(=O)c1cc(-c2ccncc2Cl)nnc1Oc1cccc(F)c1F` [Compound 1-074]: the LogP under setting [1] was 3.65^[a].

Where the note is “method [b]: LC-UV, neutral range, 0.001 molar ammonium acetate solution in water and acetonitrile as eluent (10% to 95% acetonitrile), Table 3, compounds of formula (1)”, `CCOC(=O)c1cc(Cl)nnc1Oc1cncc(C2CC2)c1` [Compound 1-076] returned a chromatographic logP of 2.6.

For `Cc1nnc(Oc2cccc(C3CC3)c2F)c(C(=O)O)c1C` [Compound 1-077], the LogP under setting [1] is 1.31^[a].

In turn, `COC(=O)c1cc(Cl)nnc1Oc1cccc(C(F)(F)F)c1` [Compound 1-079] displayed a chromatographic logP under setting [1] of 3.27.

Molecule `CCOC(=O)c1cc(SC)nnc1Oc1cccc(C(F)(F)F)c1` [Compound 1-083] gave a chromatographic logP under setting [1] of 3.96.

Consider `COC(=O)c1c(Oc2cccc(C(F)(F)F)c2)nnc(Cl)c1-n1cccn1` [Compound 1-084], for which the LogP under setting [1] was 3.53^[a].

As for `COC(=O)c1c(Oc2cccc(C(F)(F)F)c2)nnc(Cl)c1-c1ccccc1` [Compound 1-085], the chromatographic logP under setting [1] was determined as 4.25.

Take `COC(=O)c1cc(Cl)nnc1Oc1cncc(Br)c1` [Compound 1-086]: under setting [1], the chromatographic logP was determined as 2.33.

For the molecule `CCOC(=O)c1cc(Cl)nnc1Oc1cncc(C(F)(F)F)c1` [Compound 1-088], the chromatographic logP under setting [1] stood at 3.

As for `CC(=O)c1cccc(Oc2nnc(Cl)cc2C(=O)O)c1` [Compound 1-093], the LogP under setting [1] is 1.01^[a].

For the molecule `Cc1cc(C(=O)O)c(Oc2cccc(C(F)F)c2)nn1` [Compound 1-098], the LogP under setting [1] was 1.36^[a].

As for `COC(=O)c1cc(Cl)nnc1Oc1cccc(C2CC2)c1F` [Compound 1-099], under setting [1], the chromatographic logP came to 3.45.

Regarding `COC(=O)c1cc(C)nnc1Oc1cccc(C2CC2)c1F` [Compound 1-100], under setting [1], the chromatographic logP amounted to 2.89.

As for `COC(=O)c1c(Oc2cccc(C3CC3)c2F)nnc(Cl)c1C` [Compound 1-101], the chromatographic logP under setting [1] turned out to be 3.7.

As for `CC(C)OC(=O)c1cc(Cl)nnc1Oc1cncc(C(F)F)c1` [Compound 1-102], under setting [1], the LogP was 2.82^[a].

`CCOC(=O)c1cc(C)nnc1Oc1cccc(C2CC2)c1F` [Compound 1-112]: the chromatographic logP under setting [1] worked out at 3.29.

For the molecule `CNc1c(Cl)nnc(Oc2cccc(C3CC3)c2F)c1C(=O)O` [Compound 1-116], the LogP under setting [1] was 1.97^[a].

Take `Cc1c(Cl)nnc(Oc2cccc(C(F)F)c2F)c1C(=O)O` [Compound 1-117]: the LogP under setting [1] was 1.49^[a].

`CCOC(=O)c1cc(Cl)nnc1Oc1cccc(Cl)c1F` [Compound 1-119] gave a chromatographic logP under setting [1] of 3.6.

`CCOC(=O)c1c(Oc2cccc(Cl)c2F)nnc(Cl)c1C` [Compound 1-121]: the chromatographic logP under setting [1] was 3.88.

On to `Cc1c(Cl)nnc(Oc2cccc(Cl)c2F)c1C(=O)O` [Compound 1-122], for which the LogP under setting [1] was 1.68^[a].

Turning to `COC(=O)c1cc(Cl)nnc1Oc1cccc(C(F)F)c1` [Compound 1-124], under setting [1], the chromatographic logP stood at 2.76.

In the case of `Cc1cc(C(=O)O)c(Oc2cccc(C(F)(F)F)c2)nn1` [Compound 1-125], the LogP under setting [1] was 1.92^[a].

Regarding `O=C(O)c1cc(I)nnc1Oc1cccc(C(F)(F)F)c1` [Compound 1-127], the LogP under setting [1] is 2.08^[a].

Take `CCOC(=O)c1cc(Cl)nnc1Oc1cccc(Br)c1` [Compound 1-130]: the chromatographic logP under setting [1] stood at 3.65.

For the molecule `C#Cc1ccc(C(F)(F)CN)c(C)c1` [Compound 2-01], the LogP under setting [2] was 0.93^[a].

For the molecule `Cc1cc(C)c(C(F)(F)CN)c(F)c1` [Compound 2-03], the LogP under setting [2] is 0.95^[a].

Regarding `NCC(F)(F)c1cccc(Br)c1Cl` [Compound 2-04], the LogP under setting [2] was 0.87^[a].

In the case of `O=C(NCC(F)(F)c1ccc(Br)cc1Cl)c1cc(Cl)nnc1Cl` [Compound 3-10, N-[2-(4-bromo-2-chloro-phenyl)-2,2-difluoro-ethyl]-3,6-dichloro-pyridazine-4-carboxamide], the chromatographic logP runs as follows: (method [a]) 3.29; (method [b]) 3.24.

In the case of `CC=Cc1cccc(O)c1F` [Compound 4-01], the LogP (method [a]: LC-UV, acidic range, 0.1% formic acid in water and acetonitrile as eluent, Table 9, compounds of formula (4)) was 2.33^[a].

The molecule `Cc1ccc(C(F)(F)CNC(=O)c2cc(Cl)nnc2Oc2cccc(C(F)(F)F)c2)c(C)c1` [Compound I-014, 6-chloro-N-[2-(2,4-dimethylphenyl)-2,2-difluoro-ethyl]-3-[3-(trifluoromethyl)phenoxy]pyridazine-4-carboxamide] had a chromatographic logP under setting [3] of 4.46.

As for `Cc1ccc(C(F)(F)CNC(=O)c2c(Oc3cccc(C(F)(F)F)c3)nnc(Cl)c2I)c(C)c1` [Compound I-020, 6-chloro-N-[2-(2,4-dimethylphenyl)-2,2-difluoro-ethyl]-5-iodo-3-[3-(trifluoromethyl)phenoxy]pyridazine-4-carboxamide], the chromatographic logP under setting [3] stood at 4.61.

Under setting [3], `COCCc1c(Cl)nnc(Oc2cccc(C(F)(F)F)c2)c1C(=O)NCC(F)(F)c1ccc(Br)cc1Cl` [Compound I-070, N-[2-(4-bromo-2-chloro-phenyl)-2,2-difluoro-ethyl]-6-chloro-5-(2-methoxyethyl)-3-[3-(trifluoromethyl)phenoxy]pyridazine-4-carboxamide] registered a chromatographic logP of 4.77.

Take `Cc1ccc(CCNC(=S)c2cc(C)nnc2Oc2cccc(C(F)(F)F)c2)c(C)c1` [Compound I-094, N-[2-(2,4-dimethylphenyl)ethyl]-6-methyl-3-[3-(trifluoro-methyl)phenoxy]pyridazine-4-carbothioamide]: under setting [3], the chromatographic logP was found to be 4.69.

The molecule `Cc1cc(C2CC2)ccc1C(F)(F)CNC(=O)c1cc(Cl)nnc1Oc1cccc(C(F)(F)F)c1` [Compound I-240, 6-chloro-N-[2-(4-cyclopropyl-2-methyl-phenyl)-2,2-difluoro-ethyl]-3-[3-(tri-fluoromethyl)phenoxy]pyridazine-4-carboxamide] yielded a chromatographic logP (HPLC method [a]) of 4.77.

`CCc1c(Cl)nnc(Oc2cccc(C(F)(F)F)c2)c1C(=O)NCC(F)(F)c1ccc(Cl)cc1` [Compound I-254, 6-chloro-N-[2-(4-chlorophenyl)-2,2-difluoro-ethyl]-5-ethyl-3-[3-(trifluoromethyl)phenoxy]pyridazine-4-carboxamide]: the chromatographic logP (HPLC method [a]) was determined as 4.51.

In turn, `COC(=O)N(CC(F)(F)c1ccc(C)cc1C)C(=O)c1cc(Cl)nnc1Oc1cccc(C(F)(F)F)c1` [Compound I-335, methyl N-[6-chloro-3-[3-(trifluoromethyl)phenoxy]pyridazine-4-carbonyl]-N-[2-(2,4-dimethylphenyl)-2,2-difluoro-ethyl]carbamate] returned a chromatographic logP (HPLC method [a]) of 5.19.

Consider `Cc1ccc(C(F)(F)CNC(=O)c2c(Oc3cccc(C(F)(F)F)c3)nnc(Cl)c2NC2COC2)c(C)c1` [Compound I-408, 6-chloro-N-[2-(2,4-dimethylphenyl)-2,2-difluoro-ethyl]-5-(oxetan-3-ylamino)-3-[3-(trifluoromethyl)phenoxy]pyridazine-4-carboxamide], for which the chromatographic logP is 3.85 (HPLC method [a]) and 3.94 (HPLC method [b]).

The molecule `Cc1ccc(C(F)(F)CNC(=O)c2cc(I)nnc2Oc2cccc(C(F)(F)F)c2)c(C)c1` [Compound I-461, N-[2-(2,4-dimethylphenyl)-2,2-difluoro-ethyl]-6-iodo-3-[3-(trifluoromethyl)phenoxy]pyridazine-4-carboxamide] returned a chromatographic logP (method [a]) of 4.67.

On to `O=C(NCC(F)(F)c1ccc(Br)cc1Cl)c1cc(Cl)nnc1Oc1cccc(F)c1F` [Compound I-530, N-[2-(4-bromo-2-chloro-phenyl)-2,2-difluoro-ethyl]-6-chloro-3-(2,3-difluorophenoxy)pyridazine-4-carboxamide], for which the chromatographic logP (method [a]) was 4.27.

As to `Cc1ccc(C(F)(F)CNC(=O)c2c(Oc3cccc(C(F)(F)F)c3)nnc(Cl)c2-c2cccnc2)c(C)c1` [Compound I-550, 6-chloro-N-[2-(2,4-dimethylphenyl)-2,2-difluoro-ethyl]-5-(3-pyridyl)-3-[3-(trifluoromethyl)phenoxy]pyridazine-4-carboxamide], under “method [a]”, the chromatographic logP worked out at 3.99.

The molecule `Cc1ccc(C(F)(F)CNC(=O)c2cc(C)nnc2Oc2cccc(C3CCC3)c2)c(C)c1` [Compound I-564, 3-(3-cyclobutylphenoxy)-N-[2-(2,4-dimethylphenyl)-2,2-difluoro-ethyl]-6-methyl-pyridazine-4-carboxamide] had a chromatographic logP (method [a]) of 3.85.

`CSc1cc(C(=O)NCC(F)(F)c2ccc(C)cc2C)c(Oc2cccc(C(F)(F)F)c2)nn1` [Compound I-767, N-[2-(2,4-dimethylphenyl)-2,2-difluoro-ethyl]-6-methylsulfanyl-3-[3-(trifluoromethyl)phenoxy]pyridazine-4-carboxamide] registered a chromatographic logP (method [a]) of 4.72.
